Results from the OligoGym collection.
HELM strings list units from the 5' end as sugar, base in round brackets, then linkage (d deoxyribose, r ribose, m 2'-O-methyl, p phosphodiester). Strings are as the collection lists them, not checked against the first reports. ss, as = sense and antisense strand; [una] = unlocked nucleic acid; [hna] = hexitol nucleic acid; [s4r] = 4'-thioribose; [fl2r] = 2'-fluoro

Conditions: siRNA
Note: test system not given here.

Substance	target mRNA knockdown [%]
RNA1{r(C)p.r(G)p.r(U)p.r(A)p.r(C)p.r(G)p.r(C)p.r(G)p.r(G)p.r(A)p.r(A)p.r(U)p.r(A)p.r(C)p.r(U)p.r(U)p.r(C)p.r(G)p.r(A)p.r(T)p.r(T)}|RNA2{[s4r](U)p.[s4r](C)p.[s4r](G)p.[s4r](A)p.[s4r](A)p.[s4r](G)p.[s4r](U)p.[s4r](A)p.[s4r](U)p.[s4r](U)p.[s4r](C)p.[s4r](C)p.[s4r](G)p.[s4r](C)p.[s4r](G)p.[s4r](U)p.[s4r](A)p.[s4r](C)p.[s4r](G)p.r(T)p.r(T)}$$$RNA1{StrandType:ss}|RNA2{StrandType:as}$	16.6
RNA1{r(G)p.r(A)p.r(C)p.r(G)p.[hna](U)p.r(A)p.r(A)p.[hna](A)p.r(C)p.r(G)p.[hna](G)p.r(C)p.r(C)p.[hna](A)p.r(C)p.r(A)p.r(A)p.r(G)p.[hna](U)p.[hna](U)p.d(T)}|RNA2{r(A)p.r(C)p.[hna](U)p.r(U)p.r(G)p.r(U)p.r(G)p.r(G)p.r(C)p.r(C)p.r(G)p.r(U)p.r(U)p.r(U)p.r(A)p.r(C)p.r(G)p.[hna](U)p.[hna](C)p.[hna](G)p.d(T)}$$$RNA1{StrandType:ss}|RNA2{StrandType:as}$	51.4
RNA1{r(A)p.m(U)p.r(A)p.r(C)p.r(U)p.m(U)p.r(G)p.r(G)p.r(C)p.m(G)p.r(G)p.r(G)p.r(C)p.r(U)p.r(C)p.r(U)p.r(U)p.r(U)p.r(C)p.r(T)p.r(T)}|RNA2{r(G)p.r(A)p.r(A)p.r(A)p.r(G)p.r(A)p.r(G)p.r(C)p.r(C)p.r(C)p.r(G)p.r(C)p.m(C)p.r(A)p.r(A)p.r(G)p.m(U)p.r(A)p.r(U)p.r(T)p.r(T)}$$$RNA1{StrandType:ss}|RNA2{StrandType:as}$	42
RNA1{[s4r](A)p.[s4r](A)p.[s4r](A)p.[s4r](C)p.r(A)p.r(U)p.r(G)p.r(C)p.r(A)p.r(G)p.r(A)p.r(A)p.r(A)p.r(A)p.r(U)p.[s4r](G)p.[s4r](C)p.[s4r](U)p.[s4r](G)p.r(T)p.r(T)}|RNA2{r(C)p.r(A)p.r(G)p.r(C)p.r(A)p.r(U)p.r(U)p.r(U)p.r(U)p.r(C)p.r(U)p.r(G)p.r(C)p.r(A)p.r(U)p.r(G)p.r(U)p.r(U)p.r(U)p.r(T)p.r(T)}$$$RNA1{StrandType:ss}|RNA2{StrandType:as}$	79.1
RNA1{r(A)p.r(U)p.r(C)p.m(U)p.r(A)p.r(C)p.r(C)p.r(C)p.r(A)p.r(G)p.r(C)p.r(U)p.r(C)p.r(U)p.r(C)p.r(C)p.r(C)p.r(U)p.r(U)p.r(T)p.r(T)}|RNA2{r(A)p.r(A)p.r(G)p.r(G)p.r(G)p.r(A)p.r(G)p.r(A)p.r(G)p.r(C)p.r(U)p.r(G)p.r(G)p.r(G)p.m(U)p.r(A)p.r(G)p.r(A)p.r(U)p.r(T)p.r(T)}$$$RNA1{StrandType:ss}|RNA2{StrandType:as}$	77
RNA1{[s4r](C)p.[s4r](G)p.[s4r](U)p.[s4r](A)p.r(C)p.r(G)p.r(C)p.r(G)p.r(G)p.r(A)p.r(A)p.r(U)p.r(A)p.r(C)p.r(U)p.[s4r](U)p.[s4r](C)p.[s4r](G)p.[s4r](A)p.r(T)p.r(T)}|RNA2{r(U)p.r(C)p.r(G)p.r(A)p.r(A)p.r(G)p.r(U)p.r(A)p.r(U)p.r(U)p.r(C)p.r(C)p.r(G)p.r(C)p.r(G)p.r(U)p.r(A)p.r(C)p.r(G)p.r(T)p.r(T)}$$$RNA1{StrandType:ss}|RNA2{StrandType:as}$	94.7
RNA1{[fl2r](A)p.r(G)p.[fl2r](U)p.r(U)p.[fl2r](A)p.r(A)p.[fl2r](C)p.r(C)p.[fl2r](C)p.r(G)p.[fl2r](G)p.r(G)p.[fl2r](A)p.r(C)p.[fl2r](U)p.r(U)p.[fl2r](G)p.r(G)p.[fl2r](A)p.r(T)p.r(T)}|RNA2{r(U)p.r(C)p.r(C)p.r(A)p.r(A)p.r(G)p.r(U)p.r(C)p.r(C)p.r(C)p.r(G)p.r(G)p.r(G)p.r(U)p.r(U)p.r(A)p.r(A)p.r(C)p.r(U)p.r(T)p.r(T)}$$$RNA1{StrandType:ss}|RNA2{StrandType:as}$	65
RNA1{r(G)p.m(U)p.r(A)p.r(C)p.r(U)p.r(C)p.m(U)p.r(G)p.r(A)p.m(U)p.r(G)p.r(A)p.r(G)p.r(G)p.r(A)p.r(A)p.r(G)p.r(A)p.r(G)p.r(T)p.r(T)}|RNA2{r(C)p.r(U)p.r(C)p.r(U)p.r(U)p.r(C)p.r(C)p.r(U)p.m(C)p.r(A)p.r(U)p.m(C)p.r(A)p.r(G)p.r(A)p.r(G)p.r(U)p.m(A)p.r(C)p.r(T)p.r(T)}$$$RNA1{StrandType:ss}|RNA2{StrandType:as}$	68
RNA1{r(A)p.r(G)p.r(G)p.r(A)p.r(G)p.r(A)p.r(C)p.r(C)p.r(G)p.[fl2r](U)p.r(G)p.r(A)p.[fl2r](C)p.r(A)p.r(U)p.r(U)p.r(U)p.r(C)p.r(G)p.r(T)p.r(T)}|RNA2{r(C)p.r(G)p.r(A)p.r(A)p.r(A)p.[fl2r](U)p.r(G)p.r(U)p.r(C)p.[fl2r](A)p.r(C)p.r(G)p.r(G)p.r(U)p.r(C)p.r(U)p.r(C)p.r(C)p.r(U)p.r(T)p.r(T)}$$$RNA1{StrandType:ss}|RNA2{StrandType:as}$	69
RNA1{r(G)p.r(A)p.r(C)p.r(G)p.[hna](U)p.r(A)p.r(A)p.[hna](A)p.r(C)p.r(G)p.[hna](G)p.r(C)p.r(C)p.[hna](A)p.r(C)p.r(A)p.r(A)p.r(G)p.[hna](U)p.[hna](U)p.d(T)}|RNA2{r(A)p.[hna](C)p.r(U)p.r(U)p.r(G)p.r(U)p.r(G)p.r(G)p.r(C)p.r(C)p.r(G)p.r(U)p.r(U)p.r(U)p.r(A)p.r(C)p.r(G)p.[hna](U)p.[hna](C)p.[hna](G)p.d(T)}$$$RNA1{StrandType:ss}|RNA2{StrandType:as}$	23.2
RNA1{m(G)p.r(A)p.m(A)p.r(A)p.m(C)p.r(U)p.m(G)p.r(G)p.m(U)p.r(A)p.m(C)p.r(U)p.m(U)p.r(U)p.m(C)p.r(C)p.m(C)p.r(C)p.m(C)p.r(T)p.r(T)}|RNA2{r(G)p.r(G)p.r(G)p.r(G)p.r(G)p.r(A)p.r(A)p.r(A)p.r(G)p.r(U)p.r(A)p.r(C)p.r(C)p.r(A)p.r(G)p.r(U)p.r(U)p.r(U)p.r(C)p.r(T)p.r(T)}$$$RNA1{StrandType:ss}|RNA2{StrandType:as}$	57
RNA1{m(A)p.r(U)p.m(C)p.r(A)p.m(G)p.r(A)p.m(G)p.r(G)p.m(G)p.r(A)p.m(G)p.r(G)p.m(U)p.r(C)p.m(U)p.r(U)p.m(A)p.r(G)p.m(A)p.r(T)p.r(T)}|RNA2{r(U)p.r(C)p.r(U)p.r(A)p.r(A)p.m(G)p.r(A)p.r(C)p.r(C)p.r(U)p.r(C)p.r(C)p.r(C)p.r(U)p.m(C)p.r(U)p.m(G)p.r(A)p.m(U)p.r(T)p.r(T)}$$$RNA1{StrandType:ss}|RNA2{StrandType:as}$	19
RNA1{r(G)p.r(A)p.r(C)p.r(G)p.[hna](U)p.r(A)p.r(A)p.[hna](A)p.r(C)p.r(G)p.[hna](G)p.r(C)p.r(C)p.[hna](A)p.r(C)p.r(A)p.r(A)p.r(G)p.[hna](U)p.[hna](U)p.d(T)}|RNA2{r(A)p.r(C)p.r(U)p.r(U)p.r(G)p.r(U)p.r(G)p.r(G)p.r(C)p.r(C)p.r(G)p.r(U)p.r(U)p.r(U)p.r(A)p.r(C)p.r(G)p.r(U)p.r(C)p.r(G)p.r(C)}$$$RNA1{StrandType:ss}|RNA2{StrandType:as}$	87.4
RNA1{r(U)p.m(U)p.r(A)p.r(A)p.r(G)p.r(G)p.r(A)p.r(G)p.r(A)p.r(A)p.r(G)p.r(C)p.r(U)p.r(G)p.r(A)p.r(C)p.r(G)p.r(G)p.r(C)p.r(T)p.r(T)}|RNA2{r(G)p.r(C)p.r(C)p.r(G)p.r(U)p.r(C)p.r(A)p.r(G)p.r(C)p.r(U)p.r(U)p.r(C)p.r(U)p.r(C)p.r(C)p.r(U)p.m(U)p.r(A)p.r(A)p.r(T)p.r(T)}$$$RNA1{StrandType:ss}|RNA2{StrandType:as}$	69
RNA1{m(A)p.r(G)p.m(A)p.r(G)p.m(A)p.r(G)p.m(G)p.r(U)p.m(G)p.r(G)p.m(A)p.r(G)p.m(G)p.r(U)p.m(A)p.r(U)p.m(C)p.r(U)p.m(C)p.r(T)p.r(T)}|RNA2{r(G)p.r(A)p.r(G)p.r(A)p.r(U)p.r(A)p.r(C)p.r(C)p.r(U)p.r(C)p.r(C)p.m(A)p.r(C)p.r(C)p.r(U)p.m(C)p.r(U)p.m(C)p.r(U)p.r(T)p.r(T)}$$$RNA1{StrandType:ss}|RNA2{StrandType:as}$	67
RNA1{[fl2r](G)p.r(C)p.[fl2r](U)p.r(U)p.[fl2r](C)p.r(G)p.[fl2r](G)p.r(A)p.[fl2r](A)p.r(A)p.[fl2r](C)p.r(U)p.[fl2r](G)p.r(G)p.[fl2r](A)p.r(C)p.[fl2r](A)p.r(U)p.[fl2r](C)p.r(T)p.r(T)}|RNA2{[fl2r](G)p.r(A)p.r(U)p.[fl2r](G)p.r(U)p.r(C)p.r(C)p.r(A)p.[fl2r](G)p.r(U)p.r(U)p.r(U)p.r(C)p.r(C)p.[fl2r](G)p.r(A)p.r(A)p.[fl2r](G)p.r(C)p.r(T)p.r(T)}$$$RNA1{StrandType:ss}|RNA2{StrandType:as}$	29
RNA1{r(A)p.r(G)p.r(A)p.r(A)p.r(A)p.m(C)p.r(G)p.m(C)p.r(A)p.r(G)p.m(U)p.r(A)p.r(A)p.m(U)p.m(C)p.m(C)p.r(G)p.r(G)p.r(A)p.r(T)p.r(T)}|RNA2{m(U)p.m(C)p.m(C)p.r(G)p.r(G)p.r(A)p.m(U)p.m(U)p.r(A)p.m(C)p.m(U)p.r(G)p.m(C)p.r(G)p.m(U)p.m(U)p.m(U)p.m(C)p.m(U)p.r(T)p.r(T)}$$$RNA1{StrandType:ss}|RNA2{StrandType:as}$	80
RNA1{r(G)p.r(U)p.r(A)p.r(U)p.r(G)p.r(A)p.r(C)p.r(C)p.r(G)p.r(A)p.r(C)p.r(U)p.r(A)p.r(C)p.r(G)p.r(C)p.r(G)p.r(U)p.r(A)p.r(T)p.r(T)}|RNA2{r(U)p.r(U)p.r(C)p.[una](A)p.r(G)p.r(U)p.r(G)p.r(U)p.r(G)p.r(A)p.r(U)p.r(G)p.r(A)p.r(C)p.r(A)p.r(C)p.r(U)p.r(U)p.r(G)p.r(T)p.r(T)}$$$RNA1{StrandType:ss}|RNA2{StrandType:as}$	94
RNA1{[fl2r](C)p.r(C)p.[fl2r](G)p.r(A)p.[fl2r](A)p.r(G)p.[fl2r](A)p.r(C)p.[fl2r](G)p.r(A)p.[fl2r](A)p.r(G)p.[fl2r](C)p.r(U)p.[fl2r](A)p.r(U)p.[fl2r](G)p.r(A)p.[fl2r](A)p.r(T)p.r(T)}|RNA2{r(U)p.r(U)p.r(C)p.r(A)p.r(U)p.r(A)p.[fl2r](G)p.r(C)p.r(U)p.r(U)p.r(C)p.[fl2r](G)p.r(U)p.r(C)p.r(U)p.r(U)p.r(C)p.[fl2r](G)p.[fl2r](G)p.r(T)p.r(T)}$$$RNA1{StrandType:ss}|RNA2{StrandType:as}$	23
